# Reference: US7767240B2, “Microbiological control in poultry processing” (priority 2001, dated 2010)
# Tests used:
# Experiment in all cases: Bacteria count per bird over 20-day storage (Example 4)
# Assay type in all cases: cell-based
# Conditions in all cases: pH 8
# [1] = test system: Escherichia coli ATCC 11229
# Protocol: (§1) A study was conducted to determine the effect of Clorox® bleach, and 1,3-dibromo-5,5-dimethylhydantoin (DBDMH) on carcass bacteria residual after 1.5 hour in a chill tank solution and spoilage 20-day shelf life longevity (caused by bacteria contamination). Tests were conducted at pH 8 (adjusted by trisodium phosphate). Skin pigmentation (Minolta Color Meter L value or Lightness, a value or redness and b value or yellowness) were determined before and post-processing.
# (§2) In general the study involved normal processing of 56-day-old birds, immersing carcasses first in a warm bath containing 10^4 per mL Escherichia coli, 10^4 per mL Salmonella enteritidis, 10^4 per mL Pseudomonas aeruginosa, 10^4 per mL Campylobacter jejuni, and 10^4 per mL spoilage bacteria each from […] strains (Listeria monocytogenes and Shigella sonnei). Carcass were then immersed in a chill tank “soup”, containing normal organic fluids (blood, fat, skin, and meat particles) and containing various disinfectants (termed test materials).
# (§3) A DBDMH stock solution and test solutions, a bacteria stock solution, and a “chicken soup” were prepared as in Example 3. In addition, the bacterial broth treatments, the whole bird wash sampling procedure, and the methodologies used for quantitative or qualitative determinations for bacterial organisms were conducted as in Example 3.
# (§4) In greater detail the trial events and experimental design used in this group of tests were as follows: • a) Test microorganisms used were: • Escherichia coli ATCC 11229 • Pseudomonas aeruginosa ATCC 15442 • Salmonella enteritidis ATCC 13076 • Shigella sonnei ATCC 9290 • Listeria monocytogenes ATCC 7644 • Campylobacter jejuni ATCC 29428 • b) Test Procedure: All test strains were grown individually at 35° C. for 24 hours in the media specified in Table 12. Cells were harvested by centrifugation at 10,000×g for 10 minutes and washed twice with Butterfield's Phosphate Buffer (BPB of pH 7.2). Cells were resuspended in BPB to obtain a cell suspension of approximately 1.0×10^8 CFU/mL for each microorganism. The target inoculum levels were approximately 10^6 CFU/mL in the final test solutions. In the cases of S. enteritidis and P. aeruginosa the species were washed by pouring into prepared sterile centrifuge tubes with cheesecloth filters. The culture was then pelleted and washed using above techniques and repeated 3 times. • c) The birds (56 days old) were processed under normal commercial conditions. • d) The bacteria were added to a large batch of the “chicken soup”, and then aliquots of the resultant mixture were distributed equally among the chill waters used for each test. Then the particular disinfectant composition under test was added to one of the chill waters. […]
# [2] = test system: Listeria monocytogenes ATCC 7644
# Protocol: as §1, §2, §3, §4
# [3] = test system: Shigella sonnei ATCC 9290
# Protocol: as §1, §2, §3, §4
# [4] = test system: Pseudomonas aeruginosa ATCC 15442
# Protocol: as §1, §2, §3, §4
# [5] = test system: Campylobacter jejuni ATCC 29428
# Protocol: as §1, §2, §3, §4
compound,measurement,setting,value
"CC1(C)C(=O)N(Br)C(=O)N1Br [DBDMH, 1,3-dibromo-5,5-dimethylhydantoin]","average bacteria count per bird, E. coli","[1]; Day 0, 10 ppm",861 per bird
same,"average bacteria count per bird, E. coli","[1]; Day 0, 20 ppm",22 per bird
same,"average bacteria count per bird, E. coli","[1]; Day 2, 10 ppm",966 per bird
same,"average bacteria count per bird, E. coli","[1]; Day 2, 20 ppm",31 per bird
same,"average bacteria count per bird, E. coli","[1]; Day 4, 10 ppm",1050 per bird
same,"average bacteria count per bird, E. coli","[1]; Day 4, 20 ppm",49 per bird
same,"average bacteria count per bird, E. coli","[1]; Day 6, 10 ppm",1124 per bird
same,"average bacteria count per bird, E. coli","[1]; Day 6, 20 ppm",100 per bird
same,"average bacteria count per bird, E. coli","[1]; Day 8, 10 ppm",1364 per bird
same,"average bacteria count per bird, E. coli","[1]; Day 8, 20 ppm",204 per bird
same,"average bacteria count per bird, E. coli","[1]; Day 10, 10 ppm",1621 per bird
same,"average bacteria count per bird, E. coli","[1]; Day 10, 20 ppm",401 per bird
same,"average bacteria count per bird, E. coli","[1]; Day 12, 10 ppm",2063 per bird
same,"average bacteria count per bird, E. coli","[1]; Day 12, 20 ppm",775 per bird
same,"average bacteria count per bird, E. coli","[1]; Day 14, 10 ppm",2581 per bird
same,"average bacteria count per bird, E. coli","[1]; Day 14, 20 ppm",1453 per bird
same,"average bacteria count per bird, E. coli","[1]; Day 16, 10 ppm",3005 per bird
same,"average bacteria count per bird, E. coli","[1]; Day 16, 20 ppm",2933 per bird
same,"average bacteria count per bird, E. coli","[1]; Day 18, 10 ppm",3617 per bird
same,"average bacteria count per bird, E. coli","[1]; Day 18, 20 ppm",3645 per bird
same,"average bacteria count per bird, E. coli","[1]; Day 20, 10 ppm",4460 per bird
same,"average bacteria count per bird, E. coli","[1]; Day 20, 20 ppm",4036 per bird
same,"average bacteria count per bird, L. monocytogenes","[2]; Day 0, 10 ppm",528 per bird
same,"average bacteria count per bird, L. monocytogenes","[2]; Day 0, 20 ppm",13 per bird
same,"average bacteria count per bird, L. monocytogenes","[2]; Day 2, 10 ppm",601 per bird
same,"average bacteria count per bird, L. monocytogenes","[2]; Day 2, 20 ppm",19 per bird
same,"average bacteria count per bird, L. monocytogenes","[2]; Day 4, 10 ppm",670 per bird
same,"average bacteria count per bird, L. monocytogenes","[2]; Day 4, 20 ppm",28 per bird
same,"average bacteria count per bird, L. monocytogenes","[2]; Day 6, 10 ppm",741 per bird
same,"average bacteria count per bird, L. monocytogenes","[2]; Day 6, 20 ppm",55 per bird
same,"average bacteria count per bird, L. monocytogenes","[2]; Day 8, 10 ppm",880 per bird
same,"average bacteria count per bird, L. monocytogenes","[2]; Day 8, 20 ppm",107 per bird
same,"average bacteria count per bird, L. monocytogenes","[2]; Day 10, 10 ppm",1096 per bird
same,"average bacteria count per bird, L. monocytogenes","[2]; Day 10, 20 ppm",218 per bird
same,"average bacteria count per bird, L. monocytogenes","[2]; Day 12, 10 ppm",1335 per bird
same,"average bacteria count per bird, L. monocytogenes","[2]; Day 12, 20 ppm",442 per bird
same,"average bacteria count per bird, L. monocytogenes","[2]; Day 14, 10 ppm",1564 per bird
same,"average bacteria count per bird, L. monocytogenes","[2]; Day 14, 20 ppm",843 per bird
same,"average bacteria count per bird, L. monocytogenes","[2]; Day 16, 10 ppm",1901 per bird
same,"average bacteria count per bird, L. monocytogenes","[2]; Day 16, 20 ppm",1646 per bird
same,"average bacteria count per bird, L. monocytogenes","[2]; Day 18, 10 ppm",2221 per bird
same,"average bacteria count per bird, L. monocytogenes","[2]; Day 18, 20 ppm",1985 per bird
same,"average bacteria count per bird, L. monocytogenes","[2]; Day 20, 10 ppm",2678 per bird
same,"average bacteria count per bird, L. monocytogenes","[2]; Day 20, 20 ppm",2238 per bird
same,"average bacteria count per bird, S. sonnei","[3]; Day 0, 10 ppm",845 per bird
same,"average bacteria count per bird, S. sonnei","[3]; Day 0, 20 ppm",8 per bird
same,"average bacteria count per bird, S. sonnei","[3]; Day 2, 10 ppm",962 per bird
same,"average bacteria count per bird, S. sonnei","[3]; Day 2, 20 ppm",12 per bird
same,"average bacteria count per bird, S. sonnei","[3]; Day 4, 10 ppm",1101 per bird
same,"average bacteria count per bird, S. sonnei","[3]; Day 4, 20 ppm",19 per bird
same,"average bacteria count per bird, S. sonnei","[3]; Day 6, 10 ppm",1288 per bird
same,"average bacteria count per bird, S. sonnei","[3]; Day 6, 20 ppm",37 per bird
same,"average bacteria count per bird, S. sonnei","[3]; Day 8, 10 ppm",1604 per bird
same,"average bacteria count per bird, S. sonnei","[3]; Day 8, 20 ppm",76 per bird
same,"average bacteria count per bird, S. sonnei","[3]; Day 10, 10 ppm",1954 per bird
same,"average bacteria count per bird, S. sonnei","[3]; Day 10, 20 ppm",156 per bird
same,"average bacteria count per bird, S. sonnei","[3]; Day 12, 10 ppm",2347 per bird
same,"average bacteria count per bird, S. sonnei","[3]; Day 12, 20 ppm",323 per bird
same,"average bacteria count per bird, S. sonnei","[3]; Day 14, 10 ppm",2848 per bird
same,"average bacteria count per bird, S. sonnei","[3]; Day 14, 20 ppm",657 per bird
same,"average bacteria count per bird, S. sonnei","[3]; Day 16, 10 ppm",3513 per bird
same,"average bacteria count per bird, S. sonnei","[3]; Day 16, 20 ppm",1286 per bird
same,"average bacteria count per bird, S. sonnei","[3]; Day 18, 10 ppm",4242 per bird
same,"average bacteria count per bird, S. sonnei","[3]; Day 18, 20 ppm",1604 per bird
same,"average bacteria count per bird, S. sonnei","[3]; Day 20, 10 ppm",4941 per bird
same,"average bacteria count per bird, S. sonnei","[3]; Day 20, 20 ppm",1834 per bird
same,"average bacteria count per bird, P. aeruginosa","[4]; Day 0, 10 ppm",743 per bird
same,"average bacteria count per bird, P. aeruginosa","[4]; Day 0, 20 ppm",6 per bird
same,"average bacteria count per bird, P. aeruginosa","[4]; Day 2, 10 ppm",820 per bird
same,"average bacteria count per bird, P. aeruginosa","[4]; Day 2, 20 ppm",9 per bird
same,"average bacteria count per bird, P. aeruginosa","[4]; Day 4, 10 ppm",931 per bird
same,"average bacteria count per bird, P. aeruginosa","[4]; Day 4, 20 ppm",13 per bird
same,"average bacteria count per bird, P. aeruginosa","[4]; Day 6, 10 ppm",1013 per bird
same,"average bacteria count per bird, P. aeruginosa","[4]; Day 6, 20 ppm",25 per bird
same,"average bacteria count per bird, P. aeruginosa","[4]; Day 8, 10 ppm",1268 per bird
same,"average bacteria count per bird, P. aeruginosa","[4]; Day 8, 20 ppm",48 per bird
same,"average bacteria count per bird, P. aeruginosa","[4]; Day 10, 10 ppm",1485 per bird
same,"average bacteria count per bird, P. aeruginosa","[4]; Day 10, 20 ppm",91 per bird
same,"average bacteria count per bird, P. aeruginosa","[4]; Day 12, 10 ppm",1730 per bird
same,"average bacteria count per bird, P. aeruginosa","[4]; Day 12, 20 ppm",186 per bird
same,"average bacteria count per bird, P. aeruginosa","[4]; Day 14, 10 ppm",2055 per bird
same,"average bacteria count per bird, P. aeruginosa","[4]; Day 14, 20 ppm",363 per bird
same,"average bacteria count per bird, P. aeruginosa","[4]; Day 16, 10 ppm",2560 per bird
same,"average bacteria count per bird, P. aeruginosa","[4]; Day 16, 20 ppm",700 per bird
same,"average bacteria count per bird, P. aeruginosa","[4]; Day 18, 10 ppm",3087 per bird
same,"average bacteria count per bird, P. aeruginosa","[4]; Day 18, 20 ppm",826 per bird
same,"average bacteria count per bird, P. aeruginosa","[4]; Day 20, 10 ppm",3853 per bird
same,"average bacteria count per bird, P. aeruginosa","[4]; Day 20, 20 ppm",908 per bird
same,"average bacteria count per bird, C. jejuni","[5]; Day 0, 10 ppm",519 per bird
same,"average bacteria count per bird, C. jejuni","[5]; Day 0, 20 ppm",17 per bird
same,"average bacteria count per bird, C. jejuni","[5]; Day 2, 10 ppm",573 per bird
same,"average bacteria count per bird, C. jejuni","[5]; Day 2, 20 ppm",25 per bird
same,"average bacteria count per bird, C. jejuni","[5]; Day 4, 10 ppm",627 per bird
same,"average bacteria count per bird, C. jejuni","[5]; Day 4, 20 ppm",39 per bird
same,"average bacteria count per bird, C. jejuni","[5]; Day 6, 10 ppm",671 per bird
same,"average bacteria count per bird, C. jejuni","[5]; Day 6, 20 ppm",78 per bird
same,"average bacteria count per bird, C. jejuni","[5]; Day 8, 10 ppm",834 per bird
same,"average bacteria count per bird, C. jejuni","[5]; Day 8, 20 ppm",157 per bird
same,"average bacteria count per bird, C. jejuni","[5]; Day 10, 10 ppm",1043 per bird
same,"average bacteria count per bird, C. jejuni","[5]; Day 10, 20 ppm",294 per bird
same,"average bacteria count per bird, C. jejuni","[5]; Day 12, 10 ppm",1309 per bird
same,"average bacteria count per bird, C. jejuni","[5]; Day 12, 20 ppm",594 per bird
same,"average bacteria count per bird, C. jejuni","[5]; Day 14, 10 ppm",1551 per bird
same,"average bacteria count per bird, C. jejuni","[5]; Day 14, 20 ppm",1191 per bird
same,"average bacteria count per bird, C. jejuni","[5]; Day 16, 10 ppm",1880 per bird
same,"average bacteria count per bird, C. jejuni","[5]; Day 16, 20 ppm",2259 per bird
same,"average bacteria count per bird, C. jejuni","[5]; Day 18, 10 ppm",2359 per bird
same,"average bacteria count per bird, C. jejuni","[5]; Day 18, 20 ppm",2835 per bird
same,"average bacteria count per bird, C. jejuni","[5]; Day 20, 10 ppm",2789 per bird
same,"average bacteria count per bird, C. jejuni","[5]; Day 20, 20 ppm",3059 per bird
